The values below come from ChEMBL document CHEMBL1139881, “A tetrazolyl-substituted subtype-selective AMPA receptor agonist” (J Med Chem, 2007).

The target of one experiment is Glutamate receptor 2 (Rattus norvegicus, UniProt P19491). In words: biochemical.
A short description of experiment [1]: Displacement of [3H]KA from kainate receptor in rat synaptosomes. Type of experiment: subcellular, Brain. In general terms: Loss of bound radioactivity is the signal in a displacement assay; it reports binding, not function.
Experiment [2] can be described thus: Activity at ionotropic GluR in rat cortical wedge by electrophysiology assay.
In a further experiment the target is Glutamate receptor 4 (Rattus norvegicus, UniProt P19493). The experiment is described as follows: biochemical.
The target of another experiment is Glutamate receptor 3 (Rattus norvegicus, UniProt P19492). In words: biochemical.
The target in another experiment is Glutamate receptor 1 (Rattus norvegicus, UniProt P19490). The experiment is described as follows: biochemical.
Experiment [3] addresses Glutamate NMDA receptor. In words: Displacement of [3H]CGP 39653 from NMDA receptor in rat synaptosomes. The class given is subcellular, Brain.
For experiment [4], the target named is Glutamate receptor ionotropic, kainate 1 (Rattus norvegicus, UniProt P22756). The experiment is described as follows: biochemical.
Description: Displacement of [3H]SYM 2081 from rat recombinant GluR5 expressed in Sf9 cells
Experiment [5] is described as follows: Displacement of [3H]AMPA from AMPA receptor in rat synaptosomes. Type of experiment: subcellular, Brain.
Experiment [6] has as its target Glutamate receptor ionotropic, kainate 2 (Rattus norvegicus, UniProt P42260). In words: Displacement of [3H]KA from rat recombinant GluR6 expressed in Sf9 cells.
The target in experiment [7] is Glutamate NMDA receptor. In words: Displacement of [3H][…] from NMDA receptor in rat synaptosomes. The class given is subcellular, Brain.
Experiment [8] in a line: Agonist activity at GluR2 L483Y mutant expressed in Xenopus laevis oocytes assessed as by effect on glutamate-induced current relative to glutamate. The class given is functional, Homo sapiens, Oocyte.
The nature of experiment [9]: Agonist activity at GluR2 L483Y mutant expressed in Xenopus laevis oocytes assessed as by effect on glutamate-induced current by two-electrode voltage clamp assay. Particulars: Homo sapiens, Oocyte. Type of experiment: functional, cell-based. (Two-electrode voltage clamp holds a large cell at a set potential and records current.)

Chain of Glutamate receptor 2 (P19491 whole entry): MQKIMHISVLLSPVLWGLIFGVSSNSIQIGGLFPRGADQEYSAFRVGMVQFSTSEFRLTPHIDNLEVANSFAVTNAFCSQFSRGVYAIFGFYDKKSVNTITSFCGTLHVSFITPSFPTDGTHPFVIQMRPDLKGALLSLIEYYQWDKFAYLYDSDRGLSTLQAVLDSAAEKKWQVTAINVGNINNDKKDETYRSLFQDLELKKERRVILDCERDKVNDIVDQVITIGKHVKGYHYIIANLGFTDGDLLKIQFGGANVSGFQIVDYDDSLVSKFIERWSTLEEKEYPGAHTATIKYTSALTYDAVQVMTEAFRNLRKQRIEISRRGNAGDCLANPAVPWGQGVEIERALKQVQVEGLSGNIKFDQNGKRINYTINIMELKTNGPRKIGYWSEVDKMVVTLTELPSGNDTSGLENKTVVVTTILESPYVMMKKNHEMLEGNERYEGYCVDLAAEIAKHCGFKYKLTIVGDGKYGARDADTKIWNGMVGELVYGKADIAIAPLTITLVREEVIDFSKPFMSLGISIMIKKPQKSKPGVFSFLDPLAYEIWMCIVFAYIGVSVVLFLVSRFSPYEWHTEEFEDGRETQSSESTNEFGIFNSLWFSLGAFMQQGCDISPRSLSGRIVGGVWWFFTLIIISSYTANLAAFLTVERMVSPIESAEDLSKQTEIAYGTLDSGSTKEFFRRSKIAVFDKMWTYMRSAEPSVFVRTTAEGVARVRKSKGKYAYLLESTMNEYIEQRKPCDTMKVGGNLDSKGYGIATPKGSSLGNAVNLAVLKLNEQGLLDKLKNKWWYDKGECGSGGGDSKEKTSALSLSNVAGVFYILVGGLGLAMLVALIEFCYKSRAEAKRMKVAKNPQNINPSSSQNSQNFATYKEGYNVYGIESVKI
Chain of Glutamate receptor 3 (P19492 whole entry): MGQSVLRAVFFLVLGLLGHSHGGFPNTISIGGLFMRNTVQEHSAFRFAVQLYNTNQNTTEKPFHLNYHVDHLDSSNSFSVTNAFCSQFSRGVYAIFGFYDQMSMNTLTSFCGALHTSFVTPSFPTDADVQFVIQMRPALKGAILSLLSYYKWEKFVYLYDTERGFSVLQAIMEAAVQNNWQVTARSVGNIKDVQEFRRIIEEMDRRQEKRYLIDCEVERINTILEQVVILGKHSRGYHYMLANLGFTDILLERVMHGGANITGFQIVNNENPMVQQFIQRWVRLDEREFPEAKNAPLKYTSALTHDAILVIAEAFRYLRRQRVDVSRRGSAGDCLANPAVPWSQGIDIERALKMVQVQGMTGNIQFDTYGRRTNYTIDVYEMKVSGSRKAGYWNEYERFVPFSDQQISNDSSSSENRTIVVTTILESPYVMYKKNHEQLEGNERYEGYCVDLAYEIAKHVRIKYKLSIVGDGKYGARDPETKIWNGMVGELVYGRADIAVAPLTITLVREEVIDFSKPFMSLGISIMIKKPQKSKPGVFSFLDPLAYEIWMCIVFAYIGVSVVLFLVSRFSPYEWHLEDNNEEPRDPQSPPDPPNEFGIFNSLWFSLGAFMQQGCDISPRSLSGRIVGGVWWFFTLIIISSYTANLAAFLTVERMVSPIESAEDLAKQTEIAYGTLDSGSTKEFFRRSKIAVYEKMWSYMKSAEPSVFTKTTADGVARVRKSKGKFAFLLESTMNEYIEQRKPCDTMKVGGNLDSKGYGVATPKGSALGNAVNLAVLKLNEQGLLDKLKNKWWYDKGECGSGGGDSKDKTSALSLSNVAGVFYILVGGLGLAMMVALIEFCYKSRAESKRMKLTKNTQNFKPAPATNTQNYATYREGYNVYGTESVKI
Chain of Glutamate receptor 1 (P19490 whole entry): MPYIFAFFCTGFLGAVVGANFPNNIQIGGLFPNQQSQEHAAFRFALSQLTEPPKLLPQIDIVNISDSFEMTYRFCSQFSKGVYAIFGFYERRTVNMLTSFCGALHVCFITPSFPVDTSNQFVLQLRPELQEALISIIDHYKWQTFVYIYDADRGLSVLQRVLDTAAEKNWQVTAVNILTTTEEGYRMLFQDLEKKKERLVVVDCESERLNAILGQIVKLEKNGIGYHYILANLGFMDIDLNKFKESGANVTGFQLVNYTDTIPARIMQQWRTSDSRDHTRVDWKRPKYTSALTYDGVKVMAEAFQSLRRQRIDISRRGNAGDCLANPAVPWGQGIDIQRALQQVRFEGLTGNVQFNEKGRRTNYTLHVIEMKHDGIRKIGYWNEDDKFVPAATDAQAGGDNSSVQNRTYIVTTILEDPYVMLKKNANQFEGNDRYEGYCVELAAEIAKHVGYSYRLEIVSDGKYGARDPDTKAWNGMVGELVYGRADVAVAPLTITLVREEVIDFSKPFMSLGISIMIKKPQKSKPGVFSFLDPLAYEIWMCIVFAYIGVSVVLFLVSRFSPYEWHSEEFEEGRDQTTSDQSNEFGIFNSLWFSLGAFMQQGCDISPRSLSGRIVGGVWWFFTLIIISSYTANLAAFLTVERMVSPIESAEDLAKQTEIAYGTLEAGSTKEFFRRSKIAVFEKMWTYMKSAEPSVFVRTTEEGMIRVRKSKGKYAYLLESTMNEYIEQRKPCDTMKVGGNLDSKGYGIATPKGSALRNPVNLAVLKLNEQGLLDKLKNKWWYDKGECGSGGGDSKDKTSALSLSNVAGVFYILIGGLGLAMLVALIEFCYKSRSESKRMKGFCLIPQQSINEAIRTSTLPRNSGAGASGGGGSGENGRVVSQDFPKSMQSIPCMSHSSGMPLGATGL
Chain of Glutamate receptor ionotropic, kainate 1 (P22756 whole entry): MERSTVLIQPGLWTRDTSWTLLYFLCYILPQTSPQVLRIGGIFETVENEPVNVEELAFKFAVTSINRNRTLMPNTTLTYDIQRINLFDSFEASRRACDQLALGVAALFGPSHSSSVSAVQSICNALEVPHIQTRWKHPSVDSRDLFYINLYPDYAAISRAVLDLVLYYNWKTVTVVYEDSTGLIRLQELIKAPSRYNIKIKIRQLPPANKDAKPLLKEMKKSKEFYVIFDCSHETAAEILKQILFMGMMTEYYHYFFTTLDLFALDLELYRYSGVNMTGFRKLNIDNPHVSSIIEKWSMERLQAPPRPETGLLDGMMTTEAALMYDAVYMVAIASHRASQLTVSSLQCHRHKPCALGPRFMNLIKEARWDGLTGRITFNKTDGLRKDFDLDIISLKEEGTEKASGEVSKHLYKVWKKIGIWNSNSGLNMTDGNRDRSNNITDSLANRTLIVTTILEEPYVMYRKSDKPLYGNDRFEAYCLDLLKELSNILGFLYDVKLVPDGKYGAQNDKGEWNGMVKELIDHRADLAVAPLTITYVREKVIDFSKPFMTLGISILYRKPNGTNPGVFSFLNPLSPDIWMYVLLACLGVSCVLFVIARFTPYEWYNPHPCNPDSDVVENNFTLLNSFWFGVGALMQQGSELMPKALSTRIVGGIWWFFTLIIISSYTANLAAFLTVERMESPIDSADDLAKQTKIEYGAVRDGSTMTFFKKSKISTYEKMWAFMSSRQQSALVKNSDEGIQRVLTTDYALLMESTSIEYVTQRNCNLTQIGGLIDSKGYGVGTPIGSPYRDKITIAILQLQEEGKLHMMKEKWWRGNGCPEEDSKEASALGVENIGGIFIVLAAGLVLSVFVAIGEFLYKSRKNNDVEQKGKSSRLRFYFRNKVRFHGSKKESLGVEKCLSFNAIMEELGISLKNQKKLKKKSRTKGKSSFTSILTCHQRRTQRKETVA
Chain of Glutamate receptor ionotropic, kainate 2 (P42260 whole entry): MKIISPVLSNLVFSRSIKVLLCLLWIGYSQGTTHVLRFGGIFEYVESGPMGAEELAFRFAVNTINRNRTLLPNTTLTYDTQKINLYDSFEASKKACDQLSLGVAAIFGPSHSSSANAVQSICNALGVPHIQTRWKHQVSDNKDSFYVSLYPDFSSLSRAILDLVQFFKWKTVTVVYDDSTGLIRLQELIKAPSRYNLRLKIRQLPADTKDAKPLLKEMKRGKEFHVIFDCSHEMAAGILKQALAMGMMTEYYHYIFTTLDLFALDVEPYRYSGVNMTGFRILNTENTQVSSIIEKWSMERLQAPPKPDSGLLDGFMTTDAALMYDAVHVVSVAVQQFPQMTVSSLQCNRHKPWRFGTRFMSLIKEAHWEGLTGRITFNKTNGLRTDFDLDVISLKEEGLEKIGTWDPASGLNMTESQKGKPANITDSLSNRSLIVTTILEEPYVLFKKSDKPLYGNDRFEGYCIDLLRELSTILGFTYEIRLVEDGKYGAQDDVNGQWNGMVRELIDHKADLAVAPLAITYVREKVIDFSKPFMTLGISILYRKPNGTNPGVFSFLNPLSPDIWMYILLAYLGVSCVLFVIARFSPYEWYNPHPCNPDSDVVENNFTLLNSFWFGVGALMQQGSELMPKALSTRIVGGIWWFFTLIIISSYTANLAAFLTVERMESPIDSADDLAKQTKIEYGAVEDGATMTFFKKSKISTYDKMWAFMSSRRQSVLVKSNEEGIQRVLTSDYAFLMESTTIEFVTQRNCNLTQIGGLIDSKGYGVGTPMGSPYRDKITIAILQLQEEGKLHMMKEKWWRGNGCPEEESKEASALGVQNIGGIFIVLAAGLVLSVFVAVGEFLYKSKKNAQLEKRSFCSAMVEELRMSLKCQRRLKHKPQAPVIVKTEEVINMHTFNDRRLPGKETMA
Description for Glutamate receptor 1: Displacement of [3H]AMPA from rat recombinant GluR1 expressed in Sf9 cells
Description for Glutamate receptor 2: Displacement of [3H]AMPA from rat recombinant GluR2 expressed in Sf9 cells
Description for Glutamate receptor 3: Displacement of [3H]AMPA from rat recombinant GluR3 expressed in Sf9 cells
Description for Glutamate receptor 4: Displacement of [3H]AMPA from rat recombinant GluR4 expressed in Sf9 cells

What is called Ki is the equilibrium dissociation constant of an inhibitor or competing ligand from its target. By IC50 is commonly meant the concentration that gives 50% inhibition. By EC50 is commonly meant the midpoint of the concentration-response curve. As to `CC(C)n1nnc(-c2onc(O)c2CC(N)C(=O)O)n1` (stereo not given), the Ki at Glutamate receptor 2 is 2.9 µM; on Glutamate receptor 4 it was 2.4 µM; on Glutamate receptor 3 it was 3.7 µM; on Glutamate receptor 1, 0.01 µM; at Glutamate NMDA receptor [3], greater than 100 µM; in [4], 31 µM. For the same molecule, the Ki in experiment [6] is greater than 100 µM. In addition, the results for the IC50 in experiment [1] and in [5] were greater than 100 µM and 6.2 µM, respectively. For the same molecule, the midpoint of the response in experiment [2], the EC50, lay at 71 µM.
Consider `Cn1nnc(-c2onc(O)c2C[C@H](N)C(=O)O)n1`, for which the Ki on Glutamate receptor 2 is 0.0039 µM; at Glutamate NMDA receptor [7], greater than 100 µM; at Glutamate receptor 4, 0.0027 µM; in experiment [4], 8.1e-05 µM; in experiment [6], 19 µM. Further, the IC50 in experiment [1] amounted to 11 µM; in [5], 0.009 µM.
Turning to `CCn1nnc(-c2onc(O)c2CC(N)C(=O)O)n1` (stereo not given), the Ki is 0.08 µM on Glutamate receptor 2; 0.044 µM on Glutamate receptor 4; 0.045 µM on Glutamate receptor 3; 0.15 µM on Glutamate receptor 1; greater than 100 µM on Glutamate NMDA receptor [3]; 2.9 µM in experiment [4]. For the same molecule, in [6], the Ki is greater than 100 µM. In addition, the values for the IC50 in experiment [1] and in experiment [5] were greater than 100 µM and 0.13 µM, respectively. Moreover, in experiment [2], a half-maximal response (EC50) required 3.5 µM.
As to `CCCn1nnc(-c2onc(O)c2CC(N)C(=O)O)n1` (stereo not given), the Ki is 1.6 µM at Glutamate receptor 2; 0.73 µM at Glutamate receptor 4; 1.2 µM at Glutamate receptor 3; 0.0052 µM at Glutamate receptor 1; greater than 100 µM on Glutamate NMDA receptor [3]; 5.5 µM in [4]. Moreover, the inhibition constant (Ki) in [6] is greater than 100 µM. In addition, the figures for the 50% inhibitory concentration (IC50) in [1] and in [5] were greater than 100 µM and 2.5 µM, respectively. This molecule yielded a concentration for a half-maximal effect (EC50) in [2] of 32 µM.
For the molecule `NC(Cc1c(O)noc1-c1nnnn1Cc1ccccc1)C(=O)O` (racemic), the IC50 in experiment [1] and in [5] was greater than 100 µM in each case. Besides, at Glutamate NMDA receptor [3], the Ki was greater than 100 µM.
For the molecule `NC(Cc1c(O)noc1-c1nnn(Cc2ccccc2)n1)C(=O)O` (racemic), the IC50 was greater than 100 µM in experiment [1] and 2.7 µM in experiment [5]. Also, the half-maximal effective concentration (EC50) is 32 µM in [2] and 95 µM in [9]. Also, the inhibition constant Ki came out at 87 µM on Glutamate NMDA receptor [3], 58 µM in [4] and 39 µM in experiment [6]. Also, the Activity in experiment [8] was 84%.
In experiment [1], `Cc1onc(O)c1CC(N)C(=O)O` (racemic) [(R,S)-AMPA] registered an IC50 greater than 100 µM. For the same molecule, the inhibitory constant (Ki) in [6] was greater than 1000 µM.
